The source made the active and inactive calls. The rule behind the calls is not given here.
What was measured:
[1] = tested on: MDA-MB-231; assay: Antiproliferative activity against human MDA-MB-231 cells assessed as reduction in cell viability after 96 hrs by MTT assay; format: functional, cell-based; settings: MDA-MB-231, 96 h
[2] = tested on: HeLa; assay: Antiproliferative activity against human HeLa cells assessed as reduction in cell viability after 96 hrs by MTT assay; format: functional, cell-based
[3] = tested on: NCI-H460; assay: Antiproliferative activity against human H460 cells assessed as reduction in cell viability after 96 hrs by MTT assay; format: functional, cell-based; settings: NCI-H460, 96 h
[4] = tested on: MDA-MB-231; assay: Antiproliferative activity against human MDA-MB-231 cells assessed as reduction in cell viability by measuring release of nitrite at 100 uM after 180 mins by Griess reagent analysis; format: functional; settings: 3 h
[5] = tested on: MDA-MB-231; assay: Induction of apoptosis in human MDA-MB-231 cells assessed as late apoptotic cells measured at 5 uM after 48 hrs by FITC-Annexin-V and propidium iodide based flow cytometric analysis (reference value: 2.68%); format: functional
[6] = tested on: MDA-MB-231; assay: Induction of morphological changes in human MDA-MB-231 cells at 5 uM measured after 24 hrs by bright field inverted microscopic analysis; format: functional, cell-based
[7] = tested on: MDA-MB-231; assay: Induction of apoptosis in human MDA-MB-231 cells assessed as necrotic cells measured at 5 uM after 48 hrs by FITC-Annexin-V and propidium iodide based flow cytometric analysis (reference value: 0.253 %); format: functional
[8] = tested on: MX1; assay: Induction of morphological changes in human MX1 cells at 5 uM measured after 24 hrs by bright field inverted microscopic analysis; format: functional, cell-based
[9] = tested on: MX1; assay: Induction of apoptosis in human MX1 cells assessed as early apoptotic cells measured at 5 uM after 48 hrs by FITC-Annexin-V and propidium iodide based flow cytometric analysis (reference value: 6.30%); format: functional
[10] = tested on: MX1; assay: Induction of morphological changes in human MX1 cells assessed as decrease in cell size at 5 uM measured after 24 hrs by bright field inverted microscopic analysis; format: functional, cell-based
[11] = tested on: MDA-MB-231; assay: Antiproliferative activity against human MDA-MB-231 cells assessed as decrease in number of colony formation at 5 uM measured after 14 days by crystal violet staining based analysis; format: functional, cell-based; settings: time 14.0 day
[12] = tested on: MX1; assay: Induction of apoptosis in human MX1 cells assessed as late apoptotic cells measured at 5 uM after 48 hrs by FITC-Annexin-V and propidium iodide based flow cytometric analysis (reference value: 5.24%); format: functional
[13] = tested on: MDA-MB-231; assay: Induction of apoptosis in human MDA-MB-231 cells assessed as viable cells measured at 5 uM after 48 hrs by FITC-Annexin-V and propidium iodide based flow cytometric analysis (reference value: 94.4% ); format: functional; settings: read-out: Activity
[14] = tested on: MDA-MB-231; assay: Induction of morphological changes in human MDA-MB-231 cells assessed as decrease in cell number at 5 uM measured after 24 hrs by bright field inverted microscopic analysis; format: functional, cell-based
[15] = tested on: MX1; assay: Induction of apoptosis in human MX1 cells assessed as viable cells measured at 5 uM after 48 hrs by FITC-Annexin-V and propidium iodide based flow cytometric analysis (reference value: 88.4%); format: functional; settings: read-out: Activity
[16] = tested on: MDA-MB-231; assay: Induction of morphological changes in human MDA-MB-231 cells assessed as decrease in cell size at 5 uM measured after 24 hrs by bright field inverted microscopic analysis; format: functional, cell-based
[17] = tested on: MDA-MB-231; assay: Induction of apoptosis in human MDA-MB-231 cells assessed as early apoptotic cells measured at 5 uM after 48 hrs by FITC-Annexin-V and propidium iodide based flow cytometric analysis (reference value: 2.71%); format: functional
[18] = tested on: MX1; assay: Induction of apoptosis in human MX1 cells assessed as necrotic cells measured at 5 uM after 48 hrs by FITC-Annexin-V and propidium iodide based flow cytometric analysis (reference value: 0.055 %); format: functional
[19] = tested on: MX1; assay: Induction of morphological changes in human MX1 cells assessed as decrease in cell number at 5 uM measured after 24 hrs by bright field inverted microscopic analysis; format: functional, cell-based

Work on `CC1(C)C=Cc2c(c(CNCCCOc3no[n+]([O-])c3S(=O)(=O)c3ccccc3)cc3c2[nH]c2ccc(C(C)(C)C)cc23)O1` yielded an IC50 [1] of 5.85 µM, an IC50 [2] of 7.55 µM and an IC50 [3] of 7.49 µM. It also gave a Nitrite release [4] of 19.7 µM.

`CN1CCN(Cc2cc3c([nH]c4ccc(C(C)(C)C)cc43)c3c2OC(C)(C)C=C3)CC1` was tested, and the Activity [5] was 7.79%, the Activity [6] was “Active” and the IC50 [1] was 3.43 µM. The Activity [7] was 0.745%, the Activity [8] was “Active” and the Activity [9] was 53.8%. For the same compound, the Activity [10] was “Active”, the Activity [11] was “Active” and the Activity [12] was 9.97%. For the same compound, the viability at 5 µM [13] was 81.3%, the IC50 [2] was 1.29 µM and the IC50 [3] was 3.59 µM. For the same compound, the Activity [14] was “Active”, the viability at 5 µM [15] was 36% and the Activity [16] was “Active”. The Activity [17] was 10.2%, the Activity [18] was 0.175% and the Activity [19] was “Active”.

`CC1(C)C=Cc2c(c(CN3CCC(COc4no[n+]([O-])c4S(=O)(=O)c4ccccc4)CC3)cc3c2[nH]c2ccc(C(C)(C)C)cc23)O1` showed an IC50 [1] of 3.75 µM, an IC50 [2] of 3.86 µM and an IC50 [3] of 4.49 µM.

Work on `CC1(C)C=Cc2c(c(CNCCOc3no[n+]([O-])c3S(=O)(=O)c3ccccc3)cc3c2[nH]c2ccc(C(C)(C)C)cc23)O1` yielded an IC50 [1] of 4.26 µM, an IC50 [2] of 5.34 µM and an IC50 [3] of 5.98 µM. For the same compound, the Nitrite release [4] was 19.7 µM.

`CC1(C)C=Cc2c(c(/C=C/C(=O)NCCCOc3no[n+]([O-])c3S(=O)(=O)c3ccccc3)cc3c2[nH]c2ccc(C(C)(C)C)cc23)O1` showed an IC50 [1] of 0.18 µM, an IC50 [2] of 0.23 µM and an IC50 [3] of 1.28 µM. The Nitrite release [4] was 19.7 µM.

For `CC(CNC(=O)/C=C/c1cc2c([nH]c3ccc(C(C)(C)C)cc32)c2c1OC(C)(C)C=C2)Oc1no[n+]([O-])c1S(=O)(=O)c1ccccc1` (stereo not given), the IC50 [1] was 0.2 µM, the IC50 [2] was 0.21 µM and the IC50 [3] was 0.99 µM.

`NCCOc1no[n+]([O-])c1S(=O)(=O)c1ccccc1` showed an IC50 [1] of 12.7 µM, an IC50 [2] of 10.5 µM and an IC50 [3] of 16.3 µM.

In the case of `CC1(C)C=Cc2c(c(/C=C/C(=O)N3CCC(Oc4no[n+]([O-])c4S(=O)(=O)c4ccccc4)CC3)cc3c2[nH]c2ccc(C(C)(C)C)cc23)O1`, the IC50 [1] is reported as 3.52 µM, the IC50 [2] is reported as 1.35 µM and the IC50 [3] is reported as 2.68 µM.

`CC1(C)C=Cc2c(c(/C=C/C(=O)N3CCC(COc4no[n+]([O-])c4S(=O)(=O)c4ccccc4)CC3)cc3c2[nH]c2ccc(C(C)(C)C)cc23)O1` gave an IC50 [1] of 0.29 µM, an IC50 [2] of 0.43 µM and an IC50 [3] of 1.36 µM. It also gave a Nitrite release [4] of 19.7 µM.

`CC1(C)C=Cc2c(c(CN3CCC(Oc4no[n+]([O-])c4S(=O)(=O)c4ccccc4)CC3)cc3c2[nH]c2ccc(C(C)(C)C)cc23)O1` showed an IC50 [1] of 3.51 µM, an IC50 [2] of 1.62 µM and an IC50 [3] of 1.39 µM. The Nitrite release [4] was 19.7 µM.

`CC1(C)C=Cc2c(c(/C=C/C(=O)N3CCCC3COc3no[n+]([O-])c3S(=O)(=O)c3ccccc3)cc3c2[nH]c2ccc(C(C)(C)C)cc23)O1` (stereo not given) showed an IC50 [1] of 0.38 µM, an IC50 [2] of 0.24 µM and an IC50 [3] of 6.04 µM. It also gave a Nitrite release [4] of 19.7 µM.

`CC1(C)C=Cc2c(c(/C=C/C(=O)N3CCC(CCOc4no[n+]([O-])c4S(=O)(=O)c4ccccc4)CC3)cc3c2[nH]c2ccc(C(C)(C)C)cc23)O1` gave an IC50 [1] of 0.21 µM, an IC50 [2] of 0.24 µM and an IC50 [3] of 3.18 µM. The Nitrite release [4] was 19.7 µM.

`CC(=O)O[C@H]1C(=O)[C@@]2(C)[C@H]([C@H](OC(=O)c3ccccc3)[C@]3(O)C[C@H](OC(=O)[C@H](O)[C@@H](NC(=O)c4ccccc4)c4ccccc4)C(C)=C1C3(C)C)[C@]1(OC(C)=O)CO[C@@H]1C[C@@H]2O` [PACLITAXEL] gave an IC50 [1] of 0.05 µM, an IC50 [2] of 0.006 µM and a Nitrite release [4] of 19.7 µM.

For `CC1(C)C=Cc2c(c(CN3CCC(CCOc4no[n+]([O-])c4S(=O)(=O)c4ccccc4)CC3)cc3c2[nH]c2ccc(C(C)(C)C)cc23)O1`, the IC50 [1] was 3.5 µM, the IC50 [2] was 1.83 µM and the IC50 [3] was 1.96 µM. For the same compound, the Nitrite release [4] was 19.7 µM.

Source: ChEMBL document CHEMBL5247609, “Novel nitric oxide-releasing derivatives of pyranocarbazole as antitumor agents: Design, synthesis, biological evaluation, and nitric oxide release studies” (Eur J Med Chem, 2022)
